Data set [1] concerns the target human TLR7 (Homo sapiens (Human), UniProt Q9NYK1). The experiment in a line: HEK-Blue-hTLR7 cells assay (SEAP reporter). The class given is cell-based. As to conditions: 20 hrs. As for the experimental part: A stable HEK-Blue-hTLR7 cell line was purchased from InvivoGen (Cat.#: hkb-htlr7, San Diego, Calif., USA). These cells were designed for studying the stimulation of human TLR7 by monitoring the activation of NF-κB. […] Therefore the reporter expression was regulated by the NF-κB promoter upon stimulation of human TLR7 for 20 hrs. The cell culture supernatant SEAP reporter activity was determined using QUANTI-Blue™ kit (Cat.#: rep-qb1, Invivogen, San Diego, Ca, USA) at a wavelength of 640 nm, a detection medium that turns purple or blue in the presence of alkaline phosphatase.
HEK-Blue-hTLR7 cells were incubated at a density of 250,000˜450,000 cells/mL in a volume of 180 μL in a 96-well plate in Dulbecco's Modified Eagle's medium (DMEM) containing 4.5 g/L glucose, 50 U/mL penicillin, […], […], 2 mM L-glutamine, 10% (V/V) heat-inactivated fetal bovine serum for 24 hrs. Then the HEK-Blue-hTLR-7 cells were incubated with addition of 20 μL test compound in a serial dilution in the presence of final DMSO at 1% and perform incubation under 37° C. in a CO2 incubator for 20 hrs. Then 20 μL of the supernatant from each well was incubated with 180 μL Quanti-blue substrate solution at 37° C. for 2 hrs and the absorbance was read at 620˜655 nm using a spectrophotometer. The signalling pathway that TLR7 activation leads to downstream NF-κB activation has been widely accepted, and therefore similar reporter assay was also widely used for evaluating TLR7 agonist (Tsuneyasu Kaisho and Takashi Tanaka, Trends in Immunology, Volume 29, Issue 7, July 2008, […]; Hiroaki Hemmi et al, Nature Immunology 3, 196-200 (2002)).

Data set [2] in a line: Metabolic stability in human liver microsomes. To be noted: 1 μM test compound, 0.5 mg/mL microsomal protein; 6.15 mL/min/kg is the limitation of assay sensitivity. As for the experimental part:
The human microsomal stability assay is used for early assessment of metabolic stability of a test compound in human liver microsomes.
Human liver microsomes (Cat. NO.: 452117, Corning, USA; Cat. NO.: H2610, Xenotech, USA) were preincubated with test compound for 10 minutes at 37° C. in 100 mM potassium phosphate buffer, pH 7.4. The reactions were initiated by adding NADPH regenerating system. The final incubation mixtures contained 1 μM test compound, 0.5 mg/mL liver microsomal protein, 1 mM MgCL2, 1 mM NADP, 1 unit/mL isocitric dehydrogenase and 6 mM isocitric acid in 100 mM potassium phosphate buffer, pH 7.4. After incubation times of 0, 3, 6, 9, 15 and 30 minutes at 37° C., 300 μL of cold ACN (including internal standard) was added to 100 μL incubation mixture to terminate the reaction. Following precipitation and centrifugation, the amount of compound remaining in the samples were determined by LC-MS/MS. Controls of no NADPH regenerating system at zero and 30 minutes were also prepared and analyzed.
For orientation: Microsomes from liver hold many membrane-bound enzymes, among them those of drug oxidation.

A short description of data set [3]: LYSA solubility. The class given is physicochemical. To be noted: 0.05 M phosphate buffer, pH 6.5, aqueous buffer, thermodynamic from solid. The protocol:
LYSA solubility assay is used to determine the aqueous solubility of a compound. Samples were prepared in duplicate from 10 mM DMSO stock solution. […] After one night, the solutions were filtered using a microtiter filter plate. Then the filtrate and its 1/10 dilution were analyzed by HPLC-UV.

Where [4] appears, read: read-out: HEK-Blue-hTLR7 (EC50 (μM)).

≈ marks a conversion by molar mass, not a printed value. Where two headings read alike, the source gives them in different places. Bounds are passed on as bounds.

Chain of human TLR7 (Q9NYK1 27-1049): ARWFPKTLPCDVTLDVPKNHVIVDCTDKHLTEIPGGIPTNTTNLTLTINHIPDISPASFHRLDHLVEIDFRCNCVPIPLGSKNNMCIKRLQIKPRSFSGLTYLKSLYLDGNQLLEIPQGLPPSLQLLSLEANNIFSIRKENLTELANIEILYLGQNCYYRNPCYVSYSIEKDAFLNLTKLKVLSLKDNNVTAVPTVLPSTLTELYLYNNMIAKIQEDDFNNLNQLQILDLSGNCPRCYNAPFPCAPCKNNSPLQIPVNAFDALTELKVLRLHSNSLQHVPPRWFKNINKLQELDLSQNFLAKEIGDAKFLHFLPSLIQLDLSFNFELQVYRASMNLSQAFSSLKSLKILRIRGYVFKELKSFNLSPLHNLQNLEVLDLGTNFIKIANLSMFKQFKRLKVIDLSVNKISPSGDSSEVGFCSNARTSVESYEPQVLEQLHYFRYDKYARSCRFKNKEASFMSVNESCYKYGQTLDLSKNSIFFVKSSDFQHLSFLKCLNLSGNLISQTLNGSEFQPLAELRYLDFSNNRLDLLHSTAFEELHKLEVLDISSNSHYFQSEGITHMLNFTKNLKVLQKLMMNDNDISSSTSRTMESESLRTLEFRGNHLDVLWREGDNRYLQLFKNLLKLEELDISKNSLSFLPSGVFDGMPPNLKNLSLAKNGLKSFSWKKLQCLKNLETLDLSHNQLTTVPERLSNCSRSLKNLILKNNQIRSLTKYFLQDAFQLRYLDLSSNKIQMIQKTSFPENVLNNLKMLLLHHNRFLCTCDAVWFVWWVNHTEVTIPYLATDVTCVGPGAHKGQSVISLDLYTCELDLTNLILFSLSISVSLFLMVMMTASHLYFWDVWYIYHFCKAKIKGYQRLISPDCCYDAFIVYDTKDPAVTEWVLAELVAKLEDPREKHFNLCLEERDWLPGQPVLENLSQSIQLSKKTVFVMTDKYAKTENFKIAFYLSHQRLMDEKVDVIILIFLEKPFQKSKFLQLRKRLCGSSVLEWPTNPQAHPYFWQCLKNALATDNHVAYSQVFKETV

With `CCCS(=N)(=O)c1nc(N)c2[nH]c(=O)n(Cc3ccc(Cl)c(C)c3)c2n1` (stereo not shown) [Example 28, 6-Amino-9-[(4-chloro-3-methyl-phenyl)methyl]-2-(propylsulfonimidoyl)-7H-purin-8-one], the EC50 (commonly the concentration giving half of the maximal effect) in data set [1] (setting [4]) was found to be 0.021 µM. Turning to `CCCS(=N)(=O)c1nc(N)c2[nH]c(=O)n(Cc3ccc(C(=O)N4CCCCC4)cc3)c2n1` (stereo not shown) [Example 41, 6-Amino-9-[[4-(piperidine-1-carbonyl)phenyl]methyl]-2-(propylsulfonimidoyl)-7H-purin-8-one], the EC50 in data set [1] (setting [4]) came to 0.084 µM. On the same count and under the same terms, as for `CCCS(=N)(=O)c1nc(N)c2[nH]c(=O)n(Cc3ccc(C(=O)N4CCCC4)cc3)c2n1` (stereo not shown) [Example 42, 6-Amino-2-(propylsulfonimidoyl)-9-[[4-(pyrrolidine-1-carbonyl)phenyl]methyl]-7H-purin-8-one], the figure is 0.09 µM. For the compound `CCCS(=N)(=O)c1nc(N)c2[nH]c(=O)n(Cc3ccc(F)cc3F)c2n1` (stereo not shown) [Example 31, 6-Amino-9-[(2,4-difluorophenyl)methyl]-2-(propylsulfonimidoyl)-7H-purin-8-one], the concentration for a half-maximal effect (EC50) in data set [1] (setting [4]) was 0.04 µM. Moreover, the “Human Liver Microsome Clearance” value in data set [2] is less than 6.15 mL/min/kg.

Turning to `CS(=N)(=O)c1nc(N)c2[nH]c(=O)n(Cc3cccnc3)c2n1` (single isomer, unassigned) [Example 16-A, 6-Amino-2-(methylsulfonimidoyl)-9-(3-pyridylmethyl)-7H-purin-8-one], the midpoint of the response in data set [1] (HEK-Blue-hTLR7 (EC50 (μM))), the EC50, lay at 0.76 µM.

Regarding `CCCS(=N)(=O)c1nc(N)c2[nH]c(=O)n(Cc3ccc(C(F)(F)F)cc3)c2n1` (stereo not shown) [Example 23, 6-Amino-2-(propylsulfonimidoyl)-9-[[4-(trifluoromethyl)phenyl]methyl]-7H-purin-8-one], the EC50 in data set [1] (setting [4]) turned out to be 0.016 µM. Compound `COCCS(=N)(=O)c1nc(N)c2[nH]c(=O)n(Cc3ccccc3)c2n1` (single isomer, unassigned) [Example 3-B, 6-Amino-9-benzyl-2-(2-methoxyethylsulfonimidoyl)-7H-purin-8-one] came in with an EC50 in data set [1] (HEK-Blue-hTLR7 (EC50 (μM))) of 0.55 µM. Turning to `CCCS(=N)(=O)c1nc(N)c2[nH]c(=O)n(Cc3ccccc3Cl)c2n1` (stereo not shown) [Example 15, 6-Amino-9-[(2-chlorophenyl)methyl]-2-(propylsulfonimidoyl)-7H-purin-8-one], in data set [1] (setting [4]), the concentration for a half-maximal effect (EC50) was determined as 0.19 µM.

For `CCCS(=N)(=O)c1nc(N)c2[nH]c(=O)n(Cc3ccc(Cl)cc3)c2n1` (single isomer, unassigned) [Example 9-A, 6-Amino-9-[(4-chlorophenyl)methyl]-2-(propylsulfonimidoyl)-7H-purin-8-one], the concentration for a half-maximal effect (EC50) in data set [1] (HEK-Blue-hTLR7 (EC50 (μM))) came to 0.014 µM.

With `CCCS(=N)(=O)c1nc(N)c2[nH]c(=O)n(Cc3ccc(C)c(Cl)c3)c2n1` (stereo not shown) [Example 36, 6-Amino-9-[(3-chloro-4-methyl-phenyl)methyl]-2-(propylsulfonimidoyl)-7H-purin-8-one], in data set [1] (setting [4]), the EC50 stood at 0.022 µM. Consider `CCCS(=N)(=O)c1nc(N)c2[nH]c(=O)n(Cc3ccc(Br)cc3)c2n1` (stereo not shown) [Example 25, 6-Amino-9-[(4-bromophenyl)methyl]-2-(propylsulfonimidoyl)-7H-purin-8-one], for which, in data set [1] (setting [4]), the EC50 was 0.0096 µM. Regarding `CCCS(=N)(=O)c1nc(N)c2[nH]c(=O)n(Cc3cccc(C#N)c3)c2n1` (stereo not shown) [Example 17, 3-[[6-Amino-8-oxo-2-(propylsulfonimidoyl)-7H-purin-9-yl]methyl]benzonitrile], in data set [1] (HEK-Blue-hTLR7 (EC50 (μM))), a half-maximal effect (EC50) was put at 0.068 µM. For `COCCS(=N)(=O)c1nc(N)c2[nH]c(=O)n(Cc3ccccc3)c2n1` (single isomer, unassigned) [Example 3-A, 6-Amino-9-benzyl-2-(2-methoxyethylsulfonimidoyl)-7H-purin-8-one], in data set [2], the “Human Liver Microsome Clearance” value is less than 6.15 mL/min/kg. Consider `CCCS(=N)(=O)c1nc(N)c2[nH]c(=O)n(Cc3ccc(S(C)(=O)=O)cc3)c2n1` (stereo not shown) [Example 37, 6-Amino-9-[(4-methylsulfonylphenyl)methyl]-2-(propylsulfonimidoyl)-7H-purin-8-one], for which the concentration for a half-maximal effect (EC50) in data set [1] (setting [4]) stood at 0.023 µM. For the same compound, in data set [2], the “Human Liver Microsome Clearance” value is less than 6.15 mL/min/kg. Consider `CCCS(=N)(=O)c1nc(N)c2[nH]c(=O)n(CC(C)C)c2n1` (stereo not shown) [Example 21, 6-Amino-9-isobutyl-2-(propylsulfonimidoyl)-7H-purin-8-one], for which the thermodynamic solubility – broadly, solubility found after equilibrating the solid with the medium – in data set [3] was determined as 121 µg/mL (≈ 387 µM).

For `CCCS(=N)(=O)c1nc(N)c2[nH]c(=O)n(Cc3ccc(Cl)cc3)c2n1` (single isomer, unassigned) [Example 9-B, 6-Amino-9-[(4-chlorophenyl)methyl]-2-(propylsulfonimidoyl)-7H-purin-8-one], the EC50 in data set [1] (HEK-Blue-hTLR7 (EC50 (μM))) is 0.011 µM. `CS(=N)(=O)c1nc(N)c2[nH]c(=O)n(Cc3cccnc3)c2n1` (single isomer, unassigned) [Example 16-B, 6-Amino-2-(methylsulfonimidoyl)-9-(3-pyridylmethyl)-7H-purin-8-one] gave an EC50 in data set [1] (HEK-Blue-hTLR7 (EC50 (μM))) of 0.15 µM. As for `CCCS(=N)(=O)c1nc(N)c2[nH]c(=O)n(Cc3ccc(Cl)c(Cl)c3)c2n1` (stereo not shown) [Example 26, 6-Amino-9-[(3,4-dichlorophenyl)methyl]-2-(propylsulfonimidoyl)-7H-purin-8-one], the EC50 in data set [1] (setting [4]) worked out at 0.021 µM. Regarding `COCCCS(=N)(=O)c1nc(N)c2[nH]c(=O)n(Cc3ccccc3)c2n1` (stereo not shown) [Example 6, 6-Amino-9-benzyl-2-(3-methoxypropylsulfonimidoyl)-7H-purin-8-one], the EC50 in data set [1] (setting [4]) was found to be 0.43 µM. The solubility (thermodynamic) in data set [3] turned out to be 89 µg/mL (≈ 236 µM). The matching figures for `CS(=N)(=O)c1nc(N)c2[nH]c(=O)n(Cc3ccccn3)c2n1` (stereo not shown) [Example 19, 6-Amino-2-(methylsulfonimidoyl)-9-(2-pyridylmethyl)-7H-purin-8-one]: 0.67 µM and more than 428 µg/mL. The matching figures for `COc1ccc(Cn2c(=O)[nH]c3c(N)nc(S(=N)(=O)CCCCl)nc32)cc1` (stereo not shown) [Example 11, 6-Amino-2-(3-chloropropylsulfonimidoyl)-9-[(4-methoxyphenyl)methyl]-7H-purin-8-one]: 0.066 µM and 18 µg/mL (≈ 43.8 µM). In the case of `CCS(=N)(=O)c1nc(N)c2[nH]c(=O)n(Cc3ccc(C)cc3)c2n1` (stereo not shown) [Example 71, 6-Amino-2-(ethylsulfonimidoyl)-9-(p-tolylmethyl)-7H-purin-8-one], the EC50 in data set [1] (setting [4]) stood at 0.098 µM. In data set [3], this compound gave a solubility (thermodynamic) of 12 µg/mL (≈ 34.6 µM). With `CCCS(=N)(=O)c1nc(N)c2[nH]c(=O)n(Cc3ccc(C)cc3)c2n1` (stereo not shown) [Example 29, 6-Amino-2-(propylsulfonimidoyl)-9-(p-tolylmethyl)-7H-purin-8-one], the EC50 in data set [1] (setting [4]) worked out at 0.027 µM.

With `COc1ccc(Cn2c(=O)[nH]c3c(N)nc(S(C)(=N)=O)nc32)cc1` (stereo not shown) [Example 10, 6-Amino-9-[(4-methoxyphenyl)methyl]-2-(methylsulfonimidoyl)-7H-purin-8-one], the EC50 in data set [1] (setting [4]) was found to be 0.074 µM. Same read-out and setting: as for `CCCS(=N)(=O)c1nc(N)c2[nH]c(=O)n(Cc3cccc(Cl)c3)c2n1` (stereo not shown) [Example 22, 6-Amino-9-[(3-chlorophenyl)methyl]-2-(propylsulfonimidoyl)-7H-purin-8-one], the figure is 0.042 µM; as for `CCCS(=N)(=O)c1nc(N)c2[nH]c(=O)n(Cc3ccc(C(=O)OC)cc3)c2n1` (stereo not shown) [Example 38, Methyl 4-[[6-amino-8-oxo-2-(propylsulfonimidoyl)-7H-purin-9-yl]methyl]benzoate], 0.075 µM. Consider `CCCS(=N)(=O)c1nc(N)c2[nH]c(=O)n(Cc3cccc(C(N)=O)c3)c2n1` (stereo not shown) [Example 18, 3-[[6-amino-8-oxo-2-(propylsulfonimidoyl)-7H-purin-9-yl]methyl]benzamide], for which the EC50 in data set [1] (setting [4]) was 0.047 µM. This compound also registered a solubility (thermodynamic) in data set [3] of 166 µg/mL (≈ 426 µM). On to `N=S(=O)(CC(F)(F)F)c1nc(N)c2[nH]c(=O)n(Cc3ccccc3)c2n1` (stereo not shown) [Example 7, 6-Amino-9-benzyl-2-(2,2,2-trifluoroethylsulfonimidoyl)-7H-purin-8-one], for which the EC50 in data set [1] (setting [4]) was determined as 0.18 µM. Also, in data set [3], the solubility (thermodynamic) stood at 18 µg/mL (≈ 46.6 µM). Turning to `CCCS(=N)(=O)c1nc(N)c2[nH]c(=O)n(Cc3ccc(Cl)c(F)c3)c2n1` (stereo not shown) [Example 30, 6-Amino-9-[(4-chloro-3-fluorophenyl)methyl]-2-(propylsulfonimidoyl)-7H-purin-8-one], the 50% effective concentration (EC50) in data set [1] (setting [4]) is 0.018 µM.

Source of the values: patent US9708325B2, “Sulfonimidoylpurinone compounds and derivatives for the treatment and prophylaxis of virus infection” (Hoffmann-La Roche Inc., priority 2015, dated 2017).
